Experimental findings from patent US9452997B2, “Piperidine and piperazine derivatives as autotaxin inhibitors” (Merck Patent GmbH, priority 2009, dated 2016) are described below.

This assay addresses T1, Recombinant autotaxin (Homo sapiens, UniProt Q13822).
T1 construct: made in house; host or cells: Hi5 insect cells (baculovirus)
In words: Autotaxin assay (Amplex Red, LPC substrate). The format is biochemical. As to conditions: recombinant autotaxin, LPC substrate, Amplex Red detection; values given as upper bounds. Here is the method: Autotaxin activity is measured indirectly by means of Amplex Red Reagent. In this course, Amplex Red is measured as fluorogenic indicator for generated H2O2. Autotaxin converts substrate lysophosphatidylcholine (LPC) to phosphocholine and lysophosphatidylic acid (LPA). After the conversion phosphocholine is reacted with alkaline phosphatase to obtain inorganic phosphate and choline. During the next step choline is oxidized with choline oxidase to yield betaine, whereby H2O2 is generated. H2O2 reacts with Amplex Red Reagent in the presence of peroxidase (Horseradish peroxidase) in an 1:1 stochiometry and yields highly fluorescent resorufin. The generated fluorescence is measured in a reaction-dependent kinetic mode in order to enable subtraction of fluorescence signals of possible other fluorescent compounds that are not part of the reaction from total measured fluorescence.
1.5 μl of a standard solution or of the compounds of the invention are dissolved in 20 mM Hepes pH 7.2 with maximally 7.7% DMSO in individual concentrations. The resulting solution is pre-incubated together with 10 μl (16 ng) of highly purified recombinant autotaxin in a black 384-hole microtiter plate for 30 min at 22° C.
Thereafter, the reaction is started through the addition of 5 μL-a-lysophosphatidyl-choline (LPC), whereby the final concentration of LPC is 75 μM. The mixture is incubated for 90 min. at 37° C. After the incubation Amplex Red Reagent, peroxidase (Horseradish peroxidase) and choline oxidase are added. The fluorescence is immediately measured at a wavelength of 612 nm with an excitation wavelength of 485 nm in a “Tecan Ultra multimode” fluorescence reader. The activity of autotaxin is indirectly calculated via the amount of detected generated H2O2.
For IC50 analysis, ten serial 1:3 dilutions starting at 30 μM for each compound were run in duplicates.
IC50 values were calculated on normalized data. For normalization, control wells were added to each assay plate and the signal of uninhibited control wells was set to 100%, whereas the signal inhibited by 500 μM C14 LPA, (Avanti Polar Lipids, Cat#857120P) was set to 0%. Curves were fitted and IC50 values calculated by the following model using proprietory analysis software: Y=Bottom+(100−Bottom)/(1+10^((Log IC50−X)*HillSlope)) Where X is the logarithm of concentration. Y is the response; Y starts at Bottom and goes to Top with a sigmoid shape. Material
Microtiter plate: PS-Microplate, 384-hole, small volume, black Corning, Cat#3677
Protein: Recombinant autotaxin (baculoviral Hi5 expression)
Substrate: L-a-lysophosphatidyl choline (chicken egg); Avanti Polar Lipids #830071P
Standard: C14 LPA, Avanti Polar Lipids, Cat#857120P
Detection Reagent: Amplex Red Reagent; Invitrogen #A12222; dissolved in 1.923 ml of DMSO peroxidase Type VI-A (horseradish), Sigma #P6782; dissolved in 7.45 ml of test buffer, Choline Oxidase; Sigma #C5896; dissolved in 2.47 ml test buffer
Detection Reagent Mix: 1:100 dilution of Amplex Red Regent in test buffer
Test buffer: 200 mM Tris-HCl, Merck, Cat #1.08219, pH 7.9; 0.1% BSA, lipid free, Roche Cat#775835
Consider `O=C(Nc1ccc(-n2cncn2)cc1)C1CC(=O)N(C2CCN(C(=O)OCc3cc(Cl)cc(Cl)c3)CC2)C1` (stereo not drawn) [Compound 54, 4-[2-Oxo-4-(4-[1,2,4]triazol-1-yl-phenylcarbamoyl)-pyrrolidin-1-yl]-piperidine-1-carboxylic acid 3,5-dichloro-benzyl ester], for which the IC50 was < 10 µM.
Regarding `O=C(Nc1ccc(-n2cccn2)cc1)C1CC(=O)N(C2CCN(C(=O)OCc3cc(Cl)cc(Cl)c3)CC2)C1` (stereo not drawn) [Compound 55, 4-[2-Oxo-4-(4-pyrazol-1-yl-phenylcarbamoyl)-pyrrolidin-1-yl]-piperidine-1-carboxylic acid 3,5-dichloro-benzyl ester], the IC50 is < 10 µM.
With `CC1=NN(c2ccc(NC(=O)C3CC(=O)N(C4CCN(C(=O)OCc5cc(Cl)cc(Cl)c5)CC4)C3)cc2)C(=O)C1` (stereo not drawn) [Compound 56, 4-{4-[4-(3-Methyl-5-oxo-4,5-dihydro-pyrazol-1-yl)-phenylcarbamoyl]-2-oxo-pyrrolidin-1-yl}-piperidine-1-carboxylic acid 3,5-dichloro-benzyl ester] the figure was < 10 µM; with `O=C(Nc1ccc(-c2csnn2)cc1)C1CC(=O)N(C2CCN(C(=O)OCc3cc(Cl)cc(Cl)c3)CC2)C1` (stereo not drawn) [Compound 57, 4-[2-Oxo-4-(4-[1,2,3]thiadiazol-4-yl-phenylcarbamoyl)-pyrrolidin-1-yl]-piperidine-1-carboxylic acid 3,5-dichloro-benzyl ester], < 10 µM.
With `O=C(/C=C/c1c[nH]cn1)N1CCN(C2CCN(C(=O)CCc3ccc(C(F)(F)F)cc3)CC2)CC1` [Compound 58, (E)-3-(3H-Imidazol-4-yl)-1-(4-{1-[3-(4-trifluoromethyl-phenyl)-propionyl]-piperidin-4-yl}-piperazin-1-yl)-propenone], the IC50 was < 10 µM.
Regarding `CS(=O)(=O)Nc1ccc(C(=O)N2CCN(C3CCN(C(=O)CCc4ccc(C(F)(F)F)cc4)CC3)CC2)cc1` [Compound 59, N-[4-(4-{1-[3-(4-Trifluoromethyl-phenyl)-propionyl]-piperidin-4-yl}-piperazine-1-carbonyl)-phenyl]-methanesulfonamide], the IC50 is < 10 µM.
With `O=C(CCc1ccc(C(F)(F)F)cc1)N1CCC(N2CCN(C(=O)c3cccc(-c4ncc[nH]4)c3)CC2)CC1` [Compound 60, 1-(4-{4-[3-(1H-Imidazol-2-yl)-benzoyl]-piperazin-1-yl}-piperidin-1-yl)-3-(4-trifluoromethyl-phenyl)-propan-1-one] the figure was < 30 µM.
On to `O=C(CCc1ccc(Cl)cc1F)N1CCC(N2CCN(C(=O)c3ccc4[nH]nnc4c3)CC2)CC1` [Compound 61, 1-{4-[4-(1H-Benzotriazole-5-carbonyl)-piperazin-1-yl]-piperidin-1-yl}-3-(4-chloro-2-fluoro-phenyl)-propan-1-one], for which the IC50 is < 10 µM.
`O=C(OCc1ccc(Cl)cc1F)N1CCC(N2CCN(C(=O)c3ccc4[nH]nnc4c3)CC2)CC1` [Compound 62, 4-[4-(1H-Benzotriazole-5-carbonyl)-piperazin-1-yl]-piperidine-1-carboxylic acid 4-chloro-2-fluoro-benzyl ester]: the IC50 is < 1 µM.
For `O=C(OCc1ccc(Cl)cc1F)N1CCC(NC2CCN(C(=O)c3ccc4[nH]nnc4c3)CC2)C1` (stereo not drawn) [Compound 63, 3-[1-(1H-Benzotriazole-5-carbonyl)-piperidin-4-ylamino]-pyrrolidine-1-carboxylic acid 4-chloro-2-fluoro-benzyl ester] the value was < 10 µM.
As for `O=C(CCc1ccc(Cl)cc1F)N1CCN(C2CCN(C(=O)c3ccc4[nH]c(=O)oc4c3)CC2)CC1` [Compound 64, 6-(4-{4-[3-(4-Chloro-2-fluoro-phenyl)-propionyl]-piperazin-1-yl}-piperidine-1-carbonyl)-3H-benzooxazol-2-one], the IC50 was < 10 µM.
With `O=C(OCc1ccc(Cl)cc1F)N1CCN(C2CCN(C(=O)c3ccc4[nH]c(=O)oc4c3)CC2)CC1` [Compound 65, 4-[1-(2-Oxo-2,3-dihydro-benzooxazole-6-carbonyl)-piperidin-4-yl]-piperazine-1-carboxylic acid 4-chloro-2-fluoro-benzyl ester] the figure was < 1 µM; with `O=C(CCc1ccc(Cl)cc1F)N1CCC(NC2CCN(C(=O)c3ccc4[nH]nnc4c3)CC2)C1` (stereo not drawn) [Compound 66, 1-{3-[1-(1H-Benzotriazole-5-carbonyl)-piperidin-4-ylamino]-pyrrolidin-1-yl}-3-(4-chloro-2-fluoro-phenyl)-propan-1-one], < 10 µM; with `O=C(CCc1ccc(Cl)cc1F)N1CCN(C2CCN(C(=O)c3ccc4[nH]nnc4c3)CC2)CC1` [Compound 67, 1-{4-[1-(1H-Benzotriazole-5-carbonyl)-piperidin-4-yl]-piperazin-1-yl}-3-(4-chloro-2-fluoro-phenyl)-propan-1-one], < 10 µM.
As for `O=C(OCc1ccc(C(F)(F)F)cc1)N1CCC(NC2CCN(C(=O)c3ccc4[nH]nnc4c3)CC2)C1` (stereo not drawn) [Compound 68, 3-[1-(1H-Benzotriazole-5-carbonyl)-piperidin-4-ylamino]-pyrrolidine-1-carboxylic acid 4-trifluoromethyl-benzyl ester], the IC50 is < 10 µM.
As to `O=C(CCc1cc(Cl)cc(Cl)c1)N1CCN(C2CCN(C(=O)c3ccc4[nH]nnc4c3)CC2)CC1` [Compound 69, 1-{4-[1-(1H-Benzotriazole-5-carbonyl)-piperidin-4-yl]-piperazin-1-yl}-3-(3,5-dichloro-phenyl)-propan-1-one], the IC50 was < 10 µM.
As for `O=C(OCc1ccc(C(F)(F)F)cc1)N1CCC(NC2CCN(C(=O)c3ccc4[nH]nnc4c3)C2)CC1` (stereo not drawn) [Compound 70, 4-[1-(1H-Benzotriazole-5-carbonyl)-pyrrolidin-3-ylamino]-piperidine-1-carboxylic acid 4-trifluoromethyl-benzyl ester], the IC50 was < 10 µM.
As to `O=C(OCc1ccc(C(F)(F)F)cc1)N1CCC(N2CCN(C(=O)c3ccc4[nH]nnc4c3)CC2)CC1` [Compound 71, 4-[4-(1H-Benzotriazole-5 carbonyl)-piperazin-1-yl]-piperidine-1-carboxylic acid 4-trifluoromethyl-benzyl ester], the IC50 was < 1 µM.
For the compound `O=C(Nc1ccc(Cl)c(C(F)(F)F)c1)C(=O)N1CCN(C2CCN(C(=O)c3ccc4[nH]nnc4c3)CC2)CC1` [Compound 72, 2-{4-[1-(1H-Benzotriazole-5-carbonyl)-piperidin-4-yl]-piperazin-1-yl}-N-(4-chloro-3-trifluoromethyl-phenyl)-2-oxo-acetamide], the IC50 was < 10 µM.
Consider `O=C(OCc1ccc(C(F)(F)F)cc1F)N1CCC(N2CCN(C(=O)c3ccc4[nH]nnc4c3)CC2)CC1` [Compound 73, 4-[4-(1H-Benzotriazole-5-carbonyl)-piperazin-1-yl]-piperidine-1-carboxylic acid 2-fluoro-4-trifluoromethyl-benzyl ester], for which the IC50 is < 1 µM.
As for `O=C(OCc1cc(C(F)(F)F)ccc1F)N1CCC(N2CCN(C(=O)c3ccc4[nH]nnc4c3)CC2)CC1` [Compound 74, 4-[4-(1H-Benzotriazole-5-carbonyl)-piperazin-1-yl]-piperidine-1-carboxylic acid 2-fluoro-5-trifluoromethyl-benzyl ester], the IC50 is < 10 µM.
With `O=C(OCc1cc(F)cc(C(F)(F)F)c1)N1CCC(N2CCN(C(=O)c3ccc4[nH]nnc4c3)CC2)CC1` [Compound 75, 4-[4-(1H-Benzotriazole-5-carbonyl)-piperazin-1-yl]-piperidine-1-carboxylic acid 3-fluoro-5-trifluoromethyl-benzyl ester], the IC50 was < 1 µM.
For `O=C(OCc1ccc(OC(F)(F)F)cc1)N1CCC(N2CCN(C(=O)c3ccc4[nH]nnc4c3)CC2)CC1` [Compound 76, 4-[4-(1H-Benzotriazole-5-carbonyl)-piperazin-1-yl]-piperidine-1-carboxylic acid 4-trifluoromethoxy-benzyl ester], the IC50 is < 1 µM.
Consider `O=C(OCc1cc(Cl)cc(C(F)(F)F)c1)N1CCC(N2CCN(C(=O)c3ccc4[nH]nnc4c3)CC2)CC1` [Compound 77, 4-[4-(1H-Benzotriazole-5-carbonyl)-piperazin-1-yl]-piperidine-1-carboxylic acid 3-chloro-5-trifluoromethyl-benzyl ester], for which the IC50 is < 1 µM.

By IC50 is commonly meant the concentration at which inhibition is half-maximal.
